This note sets out measurements from patent publication US10442803B2, “Tricyclic heterocycles as bet protein inhibitors” (Incyte Corporation, priority 2013, dated 2019).

One may read the IC50 as the concentration that gives 50% inhibition.

Each structure is given as a SMILES string. Counter-ions that a name gives are not always drawn.

For the experiment, the system named is KMS.12.BM cells. Nature of the experiment: KMS.12.BM cell viability assay. Type of experiment: cell-based. Particulars: 72 h; KMS.12.BM human myeloma cells, 3 days, Cell Titer-GLO ATP quantitation; read-out: KMS cellular IC50. The gist of the method: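 IC50 derived from luminescent ATP quantitation (Cell Titer-GLO) of viable cells after 3-day compound treatment. KMS.12.BM human myeloma line seeded at 5000 cells/well in RPMI with 10% FBS.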
As to `Cc1nnc2ccc3c(cc(-c4ccn(CCC(=O)N5CCN(C)CC5)n4)n3Cc3cccc(Cl)c3)n12` [Example 105, 6-(3-chlorobenzyl)-1-methyl-7-{1-[3-(4-methylpiperazin-1-yl)-3-oxopropyl]-1H-pyrazol-3-yl}-6H-pyrrolo[2,3-e][1,2,4]triazolo[4,3-a]pyridine], the IC50 was at most 1000 nM.

On to `CC(=O)N1CC(CC#N)(n2ccc(-c3cc4c(ccc5nnc(C)n54)n3Cc3cccc(Cl)c3)n2)C1` [Example 106, (1-acetyl-3-{3-[6-(3-chlorobenzyl)-1-methyl-6H-pyrrolo[2,3-e][1,2,4]triazolo[4,3-a]pyridin-7-yl]-1H-pyrazol-1-yl}azetidin-3-yl)acetonitrile], for which the IC50 was at most 1000 nM.

On to `Cc1nnc2ccc3c(cc(-c4ccn(C5(CC#N)CN(S(C)(=O)=O)C5)n4)n3Cc3cccc(Cl)c3)n12` [Example 107, [3-{3-[6-(3-chlorobenzyl)-1-methyl-6H-pyrrolo[2,3-e][1,2,4]triazolo[4,3-a]pyridin-7-yl]-1H-pyrazol-1-yl}-1-(methylsulfonyl)azetidin-3-yl]acetonitrile], for which the IC50 is at most 1000 nM.

As to `CC(=O)N1CC(n2ccc(-c3cc4c(ccc5nnc(C)n54)n3Cc3cccc(Cl)c3)n2)C1` [Example 108, 7-[1-(1-acetylazetidin-3-yl)-1H-pyrazol-3-yl]-6-(3-chlorobenzyl)-1-methyl-6H-pyrrolo[2,3-e][1,2,4]triazolo[4,3-a]pyridine], the IC50 is at most 1000 nM.

As for `CCNC(=O)c1cc2c(ccc3nnc(C)n32)n1Cc1cccc(Cl)c1` [Example 113, 6-(3-Chlorobenzyl)-N-ethyl-1-methyl-6H-pyrrolo[2,3-e][1,2,4]triazolo[4,3-a]pyridine-7-carboxamide trifluoroacetate salt], the IC50 was at most 1000 nM.

Regarding `Cc1nnc2ccc3c(cc(C(=O)NCC4CC4)n3Cc3cccc(Cl)c3)n12` [Example 114, 6-(3-Chlorobenzyl)-N-(cyclopropylmethyl)-1-methyl-6H-pyrrolo[2,3-e][1,2,4]triazolo[4,3-a]pyridine-7-carboxamide trifluoroacetate salt], the IC50 was at most 1000 nM.

`Cc1nnc2ccc3c(cc(C(=O)NCCO)n3Cc3cccc(Cl)c3)n12` [Example 117, 6-(3-Chlorobenzyl)-N-(2-hydroxyethyl)-1-methyl-6H-pyrrolo[2,3-e][1,2,4]triazolo[4,3-a]pyridine-7-carboxamide trifluoroacetate salt]: the IC50 is at most 1000 nM.

For `Cc1nnc2ccc3c(cc(C(=O)NCCN4CCOCC4)n3Cc3cccc(Cl)c3)n12` [Example 119, 6-(3-Chlorobenzyl)-1-methyl-N-(2-morpholin-4-ylethyl)-6H-pyrrolo[2,3-e][1,2,4]triazolo[4,3-a]pyridine-7-carboxamide trifluoroacetate salt], the IC50 was at most 1000 nM.

For `CCNC(=O)c1cc2c(ccc3nnc(C)n32)n1Cc1cccc(CN2CCC2)c1` [Example 121, 6-[3-(Azetidin-1-ylmethyl)benzyl]-N-ethyl-1-methyl-6H-pyrrolo[2,3-e][1,2,4]triazolo[4,3-a]pyridine-7-carboxamide bis(trifluoroacetate) salt], the IC50 is at most 1000 nM.

`CNC(=O)c1cc2c(ccc3nnc(C)n32)n1Cc1cccc(CN2CCC2)c1` [Example 122, 6-[3-(Azetidin-1-ylmethyl)benzyl]-N,1-dimethyl-6H-pyrrolo[2,3-e][1,2,4]triazolo[4,3-a]pyridine-7-carboxamide bis(trifluoroacetate) salt]: the IC50 fell in the range of 1000 to 10000 nM.

For `Cc1nnc2ccc3c(cc(C(=O)NCCCO)n3Cc3ccccc3)n12` [Example 123, 6-Benzyl-N-(3-hydroxypropyl)-1-methyl-6H-pyrrolo[2,3-e][1,2,4]triazolo[4,3-a]pyridine-7-carboxamide trifluoroacetate salt], the half-inhibitory concentration (IC50) is at most 1000 nM.

In the case of `Cc1nnc2ccc3c(cc(C(=O)NCC(C)C)n3Cc3ccccc3)n12` [Example 125, 6-Benzyl-N-isobutyl-1-methyl-6H-pyrrolo[2,3-e][1,2,4]triazolo[4,3-a]pyridine-7-carboxamide trifluoroacetate], the IC50 was at most 1000 nM.

Take `Cc1nnc2ccc3c(cc(C(=O)NCc4ccncc4)n3Cc3ccccc3)n12` [Example 126, 6-Benzyl-1-methyl-N-(pyridin-4-ylmethyl)-6H-pyrrolo[2,3-e][1,2,4]triazolo[4,3-a]pyridine-7-carboxamide bis(trifluoroacetate) salt]: the IC50 was at most 1000 nM.

Consider `Cc1nnc2ccc3c(cc(C(=O)NCCCO)n3Cc3cccc(Cl)c3)n12` [Example 127, 6-(3-Chlorobenzyl)-N-(3-hydroxypropyl)-1-methyl-6H-pyrrolo[2,3-e][1,2,4]triazolo[4,3-a]pyridine-7-carboxamide trifluoroacetate salt], for which the IC50 is at most 1000 nM.

Regarding `Cc1nnc2ccc3c(cc(C(=O)NCC(C)C)n3Cc3cccc(Cl)c3)n12` [Example 129, 6-(3-Chlorobenzyl)-N-isobutyl-1-methyl-6H-pyrrolo[2,3-e][1,2,4]triazolo[4,3-a]pyridine-7-carboxamide trifluoroacetate salt], the IC50 is at most 1000 nM.

For `Cc1nnc2ccc3c(cc(C(=O)NCc4ccncc4)n3Cc3cccc(Cl)c3)n12` [Example 130, 6-(3-Chlorobenzyl)-1-methyl-N-(pyridin-4-ylmethyl)-6H-pyrrolo[2,3-e][1,2,4]triazolo[4,3-a]pyridine-7-carboxamide bis(trifluoroacetate) salt], the IC50 was at most 1000 nM.

On to `CNC(=O)c1cc2c(ccc3nnc(C)n32)n1Cc1cc(Cl)cc(CN2CCC2)c1` [Example 131, 6-[3-(Azetidin-1-ylmethyl)-5-chlorobenzyl]-N,1-dimethyl-6H-pyrrolo[2,3-e][1,2,4]triazolo[4,3-a]pyridine-7-carboxamide bis(trifluoroacetate) salt], for which the IC50 was at most 1000 nM.

Regarding `CNC(=O)c1cc2c(ccc3nnc(C)n32)n1Cc1cc(Cl)cc(CN2CCCC2)c1` [Example 132, 6-[3-Chloro-5-(pyrrolidin-1-ylmethyl)benzyl]-N,1-dimethyl-6H-pyrrolo[2,3-e][1,2,4]triazolo[4,3-a]pyridine-7-carboxamide 2.5×(trifluoroacetate) salt], the IC50 is at most 1000 nM.

On to `CCNC(=O)c1cc2c(ccc3nnc(C)n32)n1Cc1cc(Cl)cc(CN2CCCC2)c1` [Example 133, 6-[3-Chloro-5-(pyrrolidin-1-ylmethyl)benzyl]-N-ethyl-1-methyl-6H-pyrrolo[2,3-e][1,2,4]triazolo[4,3-a]pyridine-7-carboxamide bis(trifluoroacetate) salt], for which the IC50 is at most 1000 nM.

In the case of `CNC(=O)c1cc2c(ccc3nnc(C)n32)n1Cc1cc(Cl)cc(CN2CCC(F)(F)C2)c1` [Example 134, 6-{3-Chloro-5-[(3,3-difluoropyrrolidin-1-yl)methyl]benzyl}-N,1-dimethyl-6H-pyrrolo[2,3-e][1,2,4]triazolo[4,3-a]pyridine-7-carboxamide 2.4×(trifluoroacetate) salt], the IC50 is at most 1000 nM.

With `CNC(=O)c1cc2c(ccc3nnc(C)n32)n1Cc1cc(Cl)cc(CN2CC(C)(C)C2)c1` [Example 135, 6-{3-Chloro-5-[(3,3-dimethylazetidin-1-yl)methyl]benzyl}-N,1-dimethyl-6H-pyrrolo[2,3-e][1,2,4]triazolo[4,3-a]pyridine-7-carboxamide bis(trifluoroacetate) salt], the IC50 was at most 1000 nM.

As to `CNC(=O)c1cc2c(ccc3nnc(C)n32)n1Cc1cccc(C(F)(F)F)c1` [Example 136, N,1-dimethyl-6-[3-(trifluoromethyl)benzyl]-6H-pyrrolo[2,3-e][1,2,4]triazolo[4,3-a]pyridine-7-carboxamide trifluoroacetate salt], the IC50 is at most 1000 nM.

As to `CCNC(=O)c1cc2c(ccc3nnc(C)n32)n1Cc1cccc(C(F)(F)F)c1` [Example 137, N-Ethyl-1-methyl-6-[3-(trifluoromethyl)benzyl]-6H-pyrrolo[2,3-e][1,2,4]triazolo[4,3-a]pyridine-7-carboxamide trifluoroacetate salt], the IC50 was at most 1000 nM.

Turning to `CNC(=O)Nc1cc2c(cc(C)n2Cc2cc(Cl)cc(CN3CCCC3)c2)n2c(C)nnc12` [Example 142, N-{6-[3-Chloro-5-(pyrrolidin-1-ylmethyl)benzyl]-1,7-dimethyl-6H-pyrrolo[2,3-e][1,2,4]triazolo[4,3-a]pyridin-4-yl}-N′-methylurea bis(trifluoroacetate) salt], the IC50 was at most 1000 nM.

As for `Cc1nnc2ccc3c(cc(-c4ncco4)n3Cc3ccccc3)n12` [Example 143, 6-benzyl-1-methyl-7-(1,3-oxazol-2-yl)-6H-pyrrolo[2,3-e][1,2,4]triazolo[4,3-a]pyridine trifluoroacetate salt], the IC50 is at most 1000 nM.

Consider `Cc1cc2c(cc(NC3CCOCC3)c3nnc(C)n32)n1Cc1ccccc1` [Example 146, 6-benzyl-1,7-dimethyl-N-(tetrahydro-2H-pyran-4-yl)-6H-pyrrolo[2,3-e][1,2,4]triazolo[4,3-a]pyridin-4-amine], for which the IC50 is 1000 to 10000 nM.

Consider `Cc1cc2c(cc(N[C@@H]3CCOC3)c3nnc(C)n32)n1Cc1ccccc1` [Example 147, 6-benzyl-1,7-dimethyl-N-[(3R)-tetrahydrofuran-3-yl]-6H-pyrrolo[2,3-e][1,2,4]triazolo[4,3-a]pyridin-4-amine], for which the half-maximal inhibitory concentration (IC50) fell in the range of 1000 to 10000 nM.

With `Cc1cc2c(cc(N[C@H]3CCOC3)c3nnc(C)n32)n1Cc1ccccc1` [Example 148, 6-benzyl-1,7-dimethyl-N-[(3S)-tetrahydrofuran-3-yl]-6H-pyrrolo[2,3-e][1,2,4]triazolo[4,3-a]pyridin-4-amine], the IC50 fell in the range of 1000 to 10000 nM.

As to `Cc1cc2c(cc(N[C@@H]3CCN(C(=O)OC(C)(C)C)C3)c3nnc(C)n32)n1Cc1ccccc1` [Example 149, tert-butyl (3R)-3-[(6-benzyl-1,7-dimethyl-6H-pyrrolo[2,3-e][1,2,4]triazolo[4,3-a]pyridin-4-yl)amino]pyrrolidine-1-carboxylate], the IC50 lay within 1000 to 10000 nM.

With `Cc1cc2c(cc(N[C@H]3CCN(C(=O)OC(C)(C)C)C3)c3nnc(C)n32)n1Cc1ccccc1` [Example 150, tert-butyl (3S)-3-[(6-benzyl-1,7-dimethyl-6H-pyrrolo[2,3-e][1,2,4]triazolo[4,3-a]pyridin-4-yl)amino]pyrrolidine-1-carboxylate], the IC50 is 1000 to 10000 nM.
